The values below come from patent EP4269424A1, “NOVEL ANTIVIRAL COMPOUNDS AND USE THEREOF” (priority 2022, dated 2023).

No end group written: not given here.

Data set [1] deals with G3BP1. The data set is classed as binding, human.
Data set [2] concerns Vero E6 cells.

In turn, “LTFGDFTGSTGSTGSTGITFGDFDDW [G3BPi spacer3]” returned a Kd in data set [1] of 2.4 µM. As for `CC[C@H](C)[C@H](NC(=O)CNC(=O)[C@H](CO)NC(=O)[C@H](C)NC(=O)[C@H](CC(C)C)NC(=O)[C@H](C)NC(=O)[C@H](CC(=O)O)NC(=O)[C@@H](NC(=O)[C@H](CCC(=O)O)NC(=O)[C@H](Cc1c[nH]cn1)NC(=O)[C@H](CCC(=O)O)NC(=O)[C@H](CC(=O)O)NC(=O)[C@H](Cc1ccccc1)NC(=O)[C@H](CC(=O)O)NC(=O)CNC(=O)[C@H](Cc1ccccc1)NC(=O)[C@@H](NC(=O)[C@H](CC(C)C)NC(=O)[C@H](CCCNC(=N)N)NC(=O)[C@H](CCCNC(=N)N)NC(=O)[C@H](CCCNC(=N)N)NC(=O)[C@H](CCC(N)=O)NC(=O)[C@H](CCCNC(=N)N)NC(=O)[C@H](CCCNC(=N)N)NC(=O)[C@H](CCCCN)NC(=O)[C@H](CCCCN)NC(=O)[C@H](CCCNC(=N)N)NC(=O)CNC(=O)[C@@H](N)Cc1ccc(O)cc1)[C@@H](C)O)C(C)C)C(=O)N[C@H](C(=O)N[C@@H](Cc1ccccc1)C(=O)NCC(=O)N[C@@H](CC(=O)O)C(=O)N[C@@H](Cc1ccccc1)C(=O)N[C@@H](CC(=O)O)C(=O)N[C@@H](CC(=O)O)C(=O)O)[C@@H](C)O` [G3BPi WT], in data set [2], the cell viability entry was “not affected”. `CC[C@H](C)[C@H](NC(=O)CNC(=O)[C@H](CO)NC(=O)[C@H](C)NC(=O)[C@H](CC(C)C)NC(=O)[C@H](C)NC(=O)[C@H](CCC(=O)O)NC(=O)[C@H](Cc1c[nH]cn1)NC(=O)[C@H](CCC(=O)O)NC(=O)[C@H](CC(=O)O)NC(=O)[C@H](Cc1ccccc1)NC(=O)[C@H](CC(=O)O)NC(=O)CNC(=O)[C@H](Cc1ccccc1)NC(=O)[C@@H](NC(=O)[C@@H](N)CC(C)C)[C@@H](C)O)C(=O)N[C@H](C(=O)N[C@@H](Cc1ccccc1)C(=O)NCC(=O)N[C@@H](CC(=O)O)C(=O)N[C@@H](Cc1ccccc1)C(=O)N[C@@H](CC(=O)O)C(=O)N[C@@H](CC(=O)O)C(=O)N[C@@H](Cc1c[nH]c2ccccc12)C(=O)O)[C@@H](C)O` [G3BPi spacer2] registered a Kd in data set [1] of 4.4 µM.

The Kd is the concentration at which binding is half-saturated.
